Key:
CS-induced ALI mice = assay: CS-induced lung injury model: inflammatory cells counting in BALF; format: in vivo, Balb/c mice; conditions: intragastric before CS exposure, 7 days; CT-NA 10 and 30 mg/kg, Dex 1 mg/kg; BALF 24 hrs after last CS; p<0.01
Method: Specific pathogen-free (SPF) female Balb/c mice (22-28 g; aged 8 weeks) were purchased from Shanghai SIPPR-BK Experimental Animal Co., Ltd. […] Model preparation: The mice were randomly divided into 5 groups (12 mice in each group), which were the control group (the mice were exposed to fresh air), the saline group (the mice were exposed to cigarette smoke), dexamethasone (Dex) group (1 mg/kg) (the mice were exposed to cigarette smoke), CT-NA 10 mg/kg group and CT-NA 30 mg/kg group (the mice were exposed to cigarette smoke). According to the grouping, the mice were intragastrically administered saline, Dex and CT-NA, respectively. Thereafter, the mice were exposed to fresh air or cigarette smoke generated from 3R4F research-grade cigarettes (containing about 600 mg TPM/m^3 and 29.9 mg nicotine/m^3) in a cuboid plastic box (65×50x×45 cm). Ten cigarettes were burned every day for seven days. […] 24 hrs after the last exposure to the cigarette smoke, the partial pressure of oxygen (PO2) of all mice was measured by the Moor VMS-OXY™ measuring instrument, which was used to measure the oxygenated/deoxygenated hemoglobin concentration and oxygen saturation (percentage) in the microcirculation at the wavelength range of 500 to 650 nm. […] The supernatant was aliquoted and stored at −80° C. until the cytokine or albumin concentration was measured. […]

LPS-induced ALI mice [1] = assay: LPS-induced ALI model: pro-inflammatory cytokines and chemokines in BALF by ELISA; format: in vivo, Balb/c mice; conditions: CT-NA 10 or 30 mg/kg, Dex 1 mg/kg, dose-dependent, P<0.05 or P<0.01
Method: Specific pathogen-free (SPF) Balb/c mice (♂/♀; 20-26 g; 8 weeks old) were purchased from Shanghai SIPPR-BK Experimental Animal Co., Ltd. Mice were kept in an isolated ventilated cage in an environment of 40-60% humidity, 24±2° C., and 12 hrs/12 hrs dark-light cycle, and had free access to food and water. The method for preparing the LPS-induced ALI model was simply described as follows. The mice were randomly divided into a control group (12 mice) and an LPS group (48 mice). The LPS group (48 mice) was further divided into four subgroups (12 mice in each subgroup). The unanaesthetized mice in the four subgroups of LPS were intragastrically administered with normal saline (NS), CT-NA at 10 mg/kg or 30 mg/kg, and Dex at 1 mg/kg, respectively. […] 24 hrs after LPS challenge, the oxygen saturation (SO2) of all mice was measured by a Moor VMS-OXY™ instrument which measured SO2 (%) in the microcirculation at the wavelength range of 500 to 650 nm. […]
The expression levels of pro-inflammatory cytokines (TNF-α, IL-1β, IL-6), and chemokines (KC, mouse IL-8 homolog) in the BALF supernatant were determined by using respective ELISA determination kits according to the instruction manual. After measurements of the optical density at 450 nm, the expression level was calculated via the standard curves.

LPS-induced ALI mice [2] = assay: LPS-induced ALI model: lung MPO activity assay; format: in vivo, Balb/c mice; conditions: CT-NA 10 or 30 mg/kg (P<0.01, dose dependence), Dex 1 mg/kg (P<0.01)
Method: Specific pathogen-free (SPF) Balb/c mice (♂/♀; 20-26 g; 8 weeks old) were purchased from Shanghai SIPPR-BK Experimental Animal Co., Ltd. Mice were kept in an isolated ventilated cage in an environment of 40-60% humidity, 24±2° C., and 12 hrs/12 hrs dark-light cycle, and had free access to food and water. The method for preparing the LPS-induced ALI model was simply described as follows. The mice were randomly divided into a control group (12 mice) and an LPS group (48 mice). The LPS group (48 mice) was further divided into four subgroups (12 mice in each subgroup). The unanaesthetized mice in the four subgroups of LPS were intragastrically administered with normal saline (NS), CT-NA at 10 mg/kg or 30 mg/kg, and Dex at 1 mg/kg, respectively. One hour later, the mice were anesthetized with sodium pentobarbital (intraperitoneal injection at 40 mg/kg), and then subjected to intratracheal instillation of NS to control group and LPS (4 mg/kg) to all LPS subgroups. […] 24 hrs after LPS challenge, the oxygen saturation (SO2) of all mice was measured by a Moor VMS-OXY™ instrument which measured SO2 (%) in the microcirculation at the wavelength range of 500 to 650 nm.
The MPO activity assay procedure was as follows. […] Then MPO activity was determined by measuring the changes in absorbance at 460 nm via the standard curves by using MPO assay kits.

[3] = tested on: NF-κB signalling pathway in RAW264.7 macrophages; assay: Western blotting of NF-κB signalling pathway, RAW264.7; format: cell-based, mouse; conditions: CT-NA 0.5, 1.0, 10, or 100 μM, LPS (100 ng/ml)
Method: The method for total protein extraction and Western blotting determination was as follows. The lung tissue was homogenized in RIPA buffer (0.5M Tris-HCl, pH 7.4, 1.5M NaCl, 2.5% deoxycholic acid, 10% NP-40, 10 mM EDTA) containing protease and phosphatase inhibitors (Sigma-Aldrich, St. Louis, Mo.). RAW264.7 macrophages were seeded into two 6-well plates at 70-80% confluence. After overnight starvation with serum-free RPMI-1640 medium, RAW264.7 macrophages were pretreated with CT-NA (0.5, 1, 10 and 100 μM) for 1 hour. Thereafter, one 6-well plate was treated with LPS (100 ng/ml) for 1 hour, and the other was treated with PGD2 (10 μM) for 1 hour. After washing three times with PBS, the cells were directly lysed for 30 minutes with shaking in RIPA buffer containing protease and phosphatase inhibitors in an ice environment. Then, the lysate was centrifuged at 12,300×g for 15 minutes at 4° C., and the supernatant was collected. […] was performed to measure protein concentration. Equal amounts of protein (30 μg) were resolved on 12% SDS-PAGE and transferred to 0.45 um polyvinylidene fluoride (PVDF) membranes (Millipore, Bedford, Mass.). The membranes were blocked with 5% (wt/vol) skimmed milk powder at room temperature for 1-2 hrs to reduce non-specific binding. […]

In the case of `CN([C@@H]1CCc2c(CC(=O)[O-])c3cccnc3n2C1)S(=O)(=O)c1ccc(F)cc1.[Na+]` [Sodium salt hydrate], the “number of total cells, macrophages and neutrophils in BALF” value (CS-induced ALI mice) is reported as “significantly reduced”, the “production of IL-1β, TNF-α, IL-6 and KC in BALF” value (LPS-induced ALI mice [1]) is reported as “effectively reduced” and the “MPO activity in lung tissues” value (LPS-induced ALI mice [2]) is reported as “remarkably reduced”. For the same molecule, the “degradation of IκBα and P65 induced by LPS” value [3] was “strongly reversed” and the “LPS-induced IκBα and P65 activation” value ([3]; dose-dependent) was “reduced”.

Source: US20220098197A1, “SALTS OF HETEROCYCLIC COMPOUND AND USE THEREOF” (priority 2019, published 2022)
